From ChEMBL document CHEMBL1201862, “PubChem BioAssay data set” (2004)
Calls of active or inactive are those of the source.

Tests used:
Cytochrome P450 2C9 = Cytochrome P450 2C9 (Homo sapiens, UniProt P11712)
Cytochrome P450 2C19 = Cytochrome P450 2C19 (Homo sapiens, UniProt P33261); assay: Cytochrome panel assay with activity outcomes. Panel member name: p450-cyp2c19 Compounds with AC50 equal or less than 10 uM are considered active; assay type: functional; conditions: read-out: AC50
Paired box protein Pax-8 = Paired box protein Pax-8 (Homo sapiens, UniProt Q06710); assay: inhibitors of PAX8-driven TPO luciferase reporter, dose response, RMG-I cells, cherry-pick (AID 687027); assay type: functional, cell-based;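 also: luciferase reporter driven by Pax8 target thyroperoxidase promoter measured by SteadyGlo luminescence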
[1] = biological target: T1, Replicative DNA helicase DnaB (Mycobacterium tuberculosis, UniProt P9WMR3); assay: DnaB intein splicing inhibitors, dose response, biochemical, cell-free fluorescence (AID 449749); assay type: functional
T1 sequence (P9WMR3 whole entry): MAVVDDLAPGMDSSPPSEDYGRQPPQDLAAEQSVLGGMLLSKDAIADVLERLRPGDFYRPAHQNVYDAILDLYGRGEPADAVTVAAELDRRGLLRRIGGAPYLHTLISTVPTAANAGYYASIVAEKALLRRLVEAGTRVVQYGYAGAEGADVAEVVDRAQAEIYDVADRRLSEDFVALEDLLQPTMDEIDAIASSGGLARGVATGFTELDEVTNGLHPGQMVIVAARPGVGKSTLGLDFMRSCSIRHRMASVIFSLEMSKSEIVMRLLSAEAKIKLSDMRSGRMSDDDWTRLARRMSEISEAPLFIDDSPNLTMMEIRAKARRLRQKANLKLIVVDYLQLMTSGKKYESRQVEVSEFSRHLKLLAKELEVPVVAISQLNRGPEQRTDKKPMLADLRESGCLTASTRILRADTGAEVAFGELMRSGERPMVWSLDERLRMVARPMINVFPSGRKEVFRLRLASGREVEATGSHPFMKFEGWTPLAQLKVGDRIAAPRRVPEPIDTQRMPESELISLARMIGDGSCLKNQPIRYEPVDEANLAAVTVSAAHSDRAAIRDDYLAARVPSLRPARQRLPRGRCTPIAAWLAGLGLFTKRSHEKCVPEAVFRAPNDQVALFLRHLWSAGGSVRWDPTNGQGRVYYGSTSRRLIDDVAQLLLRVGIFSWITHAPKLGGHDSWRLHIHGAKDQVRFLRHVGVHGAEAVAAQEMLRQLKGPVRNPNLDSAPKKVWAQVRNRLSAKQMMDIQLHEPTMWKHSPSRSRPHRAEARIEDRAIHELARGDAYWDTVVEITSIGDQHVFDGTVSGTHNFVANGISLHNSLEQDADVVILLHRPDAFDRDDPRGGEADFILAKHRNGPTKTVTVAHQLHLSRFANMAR

Protein RecA = biological target: T2, Protein RecA (Mycobacterium tuberculosis, UniProt P9WHJ3); assay: Fluorescence Cell-Free Homogeneous Dose Retest to Identify Inhibitors of RecA-Intein Splicing Activity. [Related pubchem assays (depositor defined):AID2097, AID2223, AID489010, AID492950]; assay type: functional
T2 sequence (P9WHJ3 whole entry): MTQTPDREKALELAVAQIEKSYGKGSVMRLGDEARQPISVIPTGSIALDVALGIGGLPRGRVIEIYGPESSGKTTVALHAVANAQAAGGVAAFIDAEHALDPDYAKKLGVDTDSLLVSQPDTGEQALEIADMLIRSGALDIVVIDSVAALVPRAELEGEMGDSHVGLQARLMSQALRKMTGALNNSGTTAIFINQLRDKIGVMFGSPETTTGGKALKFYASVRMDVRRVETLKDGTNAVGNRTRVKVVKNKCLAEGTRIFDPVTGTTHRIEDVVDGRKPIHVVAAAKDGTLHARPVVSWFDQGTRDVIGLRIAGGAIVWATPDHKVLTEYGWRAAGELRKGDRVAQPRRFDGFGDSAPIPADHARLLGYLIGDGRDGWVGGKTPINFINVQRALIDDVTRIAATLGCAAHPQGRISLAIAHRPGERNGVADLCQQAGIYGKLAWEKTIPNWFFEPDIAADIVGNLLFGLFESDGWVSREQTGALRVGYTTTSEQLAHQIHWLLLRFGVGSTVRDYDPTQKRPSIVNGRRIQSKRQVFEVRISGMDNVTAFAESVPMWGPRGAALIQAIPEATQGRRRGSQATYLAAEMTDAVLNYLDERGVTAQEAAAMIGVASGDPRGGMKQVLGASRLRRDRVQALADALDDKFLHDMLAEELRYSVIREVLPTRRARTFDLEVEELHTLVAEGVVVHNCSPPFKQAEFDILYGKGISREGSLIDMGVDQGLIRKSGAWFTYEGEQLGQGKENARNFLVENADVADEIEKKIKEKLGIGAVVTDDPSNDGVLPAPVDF

Cytochrome P450 1A2 = biological target: T3, Cytochrome P450 1A2 (Homo sapiens, UniProt P05177);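 also: PubChem cytochrome P450 panel assay, CYP1A2 panel member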
T3 sequence (P05177 whole entry): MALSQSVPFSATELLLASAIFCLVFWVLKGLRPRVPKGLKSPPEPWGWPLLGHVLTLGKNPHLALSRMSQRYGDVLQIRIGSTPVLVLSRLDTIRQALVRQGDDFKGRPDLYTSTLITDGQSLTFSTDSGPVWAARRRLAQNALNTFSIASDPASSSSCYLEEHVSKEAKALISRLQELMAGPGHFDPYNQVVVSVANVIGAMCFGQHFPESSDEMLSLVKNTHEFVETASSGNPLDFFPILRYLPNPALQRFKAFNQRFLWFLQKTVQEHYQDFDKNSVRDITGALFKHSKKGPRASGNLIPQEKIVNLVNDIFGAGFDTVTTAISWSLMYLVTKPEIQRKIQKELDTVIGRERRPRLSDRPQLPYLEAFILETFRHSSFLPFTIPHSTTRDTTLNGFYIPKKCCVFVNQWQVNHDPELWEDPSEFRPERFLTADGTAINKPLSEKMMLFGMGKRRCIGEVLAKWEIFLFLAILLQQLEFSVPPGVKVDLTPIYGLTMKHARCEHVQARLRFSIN

[2] = cytotoxicity toward NIH3T3 fibroblasts, dose response, counter-screen, cell-based, ATP luminescence, mouse fibroblasts (AID 2010); assay type: functional;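 also: cells exposed to compound for about 90 hours before reading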
[3] = biological target: T4, Heat shock factor protein 1 (Mus musculus, UniProt P38532); assay: HSF1 potentiators in luciferase reporter cells, confirmation, cell-based, NIH3T3, luminescence, dose retest (AID 435004); assay type: functional;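 also: stress induced by proteasome inhibitor MG132 added 30 min after compound; luciferase reporter driven by HSF1 response element in NIH3T3 cells; actives raise luminescence as potentiators of the MG132 stress response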
T4 sequence (P38532 whole entry): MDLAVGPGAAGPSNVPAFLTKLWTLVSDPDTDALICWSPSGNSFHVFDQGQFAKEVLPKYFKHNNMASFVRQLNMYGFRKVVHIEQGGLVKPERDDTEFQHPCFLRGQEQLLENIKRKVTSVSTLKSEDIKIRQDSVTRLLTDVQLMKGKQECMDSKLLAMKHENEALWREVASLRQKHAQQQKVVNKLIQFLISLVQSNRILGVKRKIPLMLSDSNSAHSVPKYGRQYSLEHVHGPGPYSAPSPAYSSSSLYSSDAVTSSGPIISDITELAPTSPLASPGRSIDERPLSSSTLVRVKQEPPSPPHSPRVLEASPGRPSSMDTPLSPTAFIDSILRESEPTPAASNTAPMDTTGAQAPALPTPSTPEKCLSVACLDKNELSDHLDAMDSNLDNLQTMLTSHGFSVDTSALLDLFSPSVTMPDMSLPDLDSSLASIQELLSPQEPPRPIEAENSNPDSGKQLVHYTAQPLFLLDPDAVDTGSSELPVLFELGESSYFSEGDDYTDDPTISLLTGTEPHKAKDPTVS

[4] = inhibitors of intracellular T. cruzi replication, confirmation, NIH3T3 host cells, beta-gal luminescence (AID 2044); assay type: functional, cell-based;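 also: intracellular parasites grown in NIH/3T3 mouse fibroblasts as host cells; luminescent beta-galactosidase reporter signal from transgenic T. cruzi replicating inside host cells; inhibitors lower the luminescence signal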
Cytochrome P450 3A4 = Cytochrome P450 3A4 (Homo sapiens, UniProt P08684);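 also: CYP3A4 tested as one member of a cytochrome P450 panel screen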
[5] = Luminescence Cell-Based Dose Retest to Confirm Inhibitors of Cancer Stem Cells. [Related pubchem assays (depositor defined):AID2717, AID2721]; assay type: functional; conditions: Homo sapiens

Sequence of Paired box protein Pax-8 (Q06710 whole entry): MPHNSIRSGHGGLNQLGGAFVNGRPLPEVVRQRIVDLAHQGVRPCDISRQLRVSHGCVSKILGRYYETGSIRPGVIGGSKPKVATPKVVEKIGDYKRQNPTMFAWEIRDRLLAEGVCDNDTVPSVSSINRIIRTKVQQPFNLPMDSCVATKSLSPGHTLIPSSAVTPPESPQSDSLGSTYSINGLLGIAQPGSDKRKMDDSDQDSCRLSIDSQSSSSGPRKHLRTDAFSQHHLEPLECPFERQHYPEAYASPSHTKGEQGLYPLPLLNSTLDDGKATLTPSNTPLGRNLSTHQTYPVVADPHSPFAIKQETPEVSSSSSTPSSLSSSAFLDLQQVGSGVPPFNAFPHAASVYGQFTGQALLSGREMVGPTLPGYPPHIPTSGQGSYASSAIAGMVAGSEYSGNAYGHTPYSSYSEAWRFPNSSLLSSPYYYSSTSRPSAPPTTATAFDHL
Sequence of Cytochrome P450 2C9 (P11712 whole entry): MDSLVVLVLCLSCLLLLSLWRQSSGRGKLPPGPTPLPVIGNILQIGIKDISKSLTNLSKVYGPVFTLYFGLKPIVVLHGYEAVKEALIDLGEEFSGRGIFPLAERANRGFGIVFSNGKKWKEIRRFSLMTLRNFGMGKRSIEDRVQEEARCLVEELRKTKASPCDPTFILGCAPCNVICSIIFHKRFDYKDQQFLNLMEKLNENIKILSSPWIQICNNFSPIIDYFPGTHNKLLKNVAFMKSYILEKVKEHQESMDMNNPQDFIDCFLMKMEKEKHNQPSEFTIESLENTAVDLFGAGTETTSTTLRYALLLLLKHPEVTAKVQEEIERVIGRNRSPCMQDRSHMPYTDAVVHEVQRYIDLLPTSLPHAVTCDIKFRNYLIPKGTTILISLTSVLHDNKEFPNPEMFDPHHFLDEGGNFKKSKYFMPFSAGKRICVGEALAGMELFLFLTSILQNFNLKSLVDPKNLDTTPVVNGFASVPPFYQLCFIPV
Sequence of Cytochrome P450 3A4 (P08684 whole entry): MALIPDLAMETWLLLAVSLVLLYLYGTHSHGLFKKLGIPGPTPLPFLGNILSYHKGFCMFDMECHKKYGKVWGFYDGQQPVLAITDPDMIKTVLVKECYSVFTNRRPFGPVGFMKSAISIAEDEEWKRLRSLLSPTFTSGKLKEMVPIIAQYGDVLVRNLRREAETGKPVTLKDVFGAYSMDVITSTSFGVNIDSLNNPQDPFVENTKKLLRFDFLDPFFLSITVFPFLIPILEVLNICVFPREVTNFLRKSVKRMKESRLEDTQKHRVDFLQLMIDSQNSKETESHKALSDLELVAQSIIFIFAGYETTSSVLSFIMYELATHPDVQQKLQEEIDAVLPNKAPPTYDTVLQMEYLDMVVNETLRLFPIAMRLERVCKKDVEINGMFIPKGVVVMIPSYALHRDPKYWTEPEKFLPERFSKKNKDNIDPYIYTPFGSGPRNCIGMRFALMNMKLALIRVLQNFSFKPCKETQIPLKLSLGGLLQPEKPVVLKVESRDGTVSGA
Sequence of Cytochrome P450 2C19 (P33261 whole entry): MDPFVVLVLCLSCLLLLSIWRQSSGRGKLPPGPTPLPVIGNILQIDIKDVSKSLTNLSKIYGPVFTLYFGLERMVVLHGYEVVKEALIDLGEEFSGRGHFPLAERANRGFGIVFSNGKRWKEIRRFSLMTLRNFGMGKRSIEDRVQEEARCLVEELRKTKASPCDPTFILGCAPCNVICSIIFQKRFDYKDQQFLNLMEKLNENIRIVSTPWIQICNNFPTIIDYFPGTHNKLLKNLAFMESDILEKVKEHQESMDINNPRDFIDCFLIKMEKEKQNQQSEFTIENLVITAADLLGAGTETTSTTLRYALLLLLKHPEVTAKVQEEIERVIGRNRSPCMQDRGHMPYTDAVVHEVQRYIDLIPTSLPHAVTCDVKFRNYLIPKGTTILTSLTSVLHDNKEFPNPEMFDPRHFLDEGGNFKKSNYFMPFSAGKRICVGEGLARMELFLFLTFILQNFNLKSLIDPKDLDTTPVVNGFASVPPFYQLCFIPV

Cc1cc(C)c(S(=O)(=O)N2CCN(c3ccc([N+](=O)[O-])c(NCc4ccco4)c3)CC2)c(C)c1
AC50 (Cytochrome P450 2C9): 0.562 µM (inconclusive) | AC50 (Cytochrome P450 2C19): 0.708 µM (inconclusive)

CC(C)NC(=O)N1CC[C@@]2(CCCN(S(C)(=O)=O)C2)C1
AC50 (Cytochrome P450 2C9): 25.1 µM (inconclusive) | AC50 (Cytochrome P450 2C19): 39.8 µM (inconclusive)

COc1ccc(NC(=O)Nc2ccc3c(c2)C(=O)N([C@@H](C)CO)C[C@@H](C)[C@@H](CN(C)Cc2ccc(C(F)(F)F)cc2)O3)cc1
AC50 (Paired box protein Pax-8): 13.9 µM (active)

Cc1n[nH]c2c1C(c1ccc(Cl)cc1)C(C#N)=C(N)O2 (stereo unspecified)
AC50 [1]: 9.8 µM (active) | EC50 (Protein RecA): 6.1 µM (active)

Cc1oc(C(C)(C)C)cc1C(=O)Nc1cccc(/C=C/C(=O)O)c1
AC50 (Cytochrome P450 2C9): 4.47 µM (inconclusive)

COc1ccc(Br)cc1[C@H]1[C@H]2C=CC[C@@H](C)[C@@H]2C(=O)N1Cc1ccccc1
AC50 [1]: 2.46 µM (active) | EC50 (Protein RecA): 163 µM (active)

COc1ccc2[nH]cc(CCNc3ccnc(-c4ccccc4Cl)n3)c2c1
AC50 (Cytochrome P450 2C9): 1 µM (inconclusive)

CCC#CCOCC(=S)Nc1ccccc1
AC50 (Cytochrome P450 1A2): 15.8 µM (inconclusive)

CN1C(=O)COc2c(C(=O)N[C@@H]3CN4CCC3CC4)cc(Cl)cc21
AC50 (Cytochrome P450 1A2): 39.8 µM (inconclusive)

Clc1ccccc1-c1nc(NCc2cccs2)c2ccccc2n1
AC50 (Cytochrome P450 2C9): 0.794 µM (inconclusive)

CCN(CC)C[C@@H]1CCCCN1CC(=O)N1c2ccccc2C(=O)Nc2cccnc21
AC50 (Cytochrome P450 1A2): 31.6 µM (inconclusive)

CCC(C)n1c(SCC(=O)NC(=O)Nc2ccc3c(c2)OCCO3)nc2ccccc2c1=O (stereo unspecified)
EC50 [2]: > 60 µM (not active) | EC50 [3]: > 260 µM (inactive) | EC50 [4]: 2.2 µM (active)

COCC(=O)O[C@]1(CCN(C)CCCc2nc3ccccc3[nH]2)CCc2cc(F)ccc2[C@@H]1C(C)C [MIBEFRADIL]
AC50 (Cytochrome P450 1A2): 31.6 µM (inconclusive)

COc1cccc(Nc2ncc3nc(-c4ccccc4)c(=O)n(Cc4cccs4)c3n2)c1
AC50 (Cytochrome P450 1A2): 20 µM (inconclusive)

O=[N+]([O-])c1ccc(N/N=C/c2sc(N3CCOCC3)nc2-c2ccccc2)c(S(=O)(=O)Nc2ccc(Cl)cc2)c1
AC50 (Paired box protein Pax-8): 1.99 µM (active)

CC(C)c1n[nH]c2c1C(c1cccc(OC(=O)N3CCOCC3)c1)C(C#N)=C(N)O2 (stereo unspecified)
AC50 [1]: 33.4 µM (active) | EC50 (Protein RecA): 5.8 µM (active)

COCCCNC(=O)c1c(NC(=O)c2cccs2)sc2c1CCCC2
AC50 (Cytochrome P450 2C9): 0.562 µM (inconclusive) | AC50 (Cytochrome P450 2C19): 4.47 µM (inconclusive)

CCc1cc2c(=O)c(-c3nc4ccccc4[nH]3)coc2cc1OC(=O)N1CCOCC1
AC50 (Cytochrome P450 2C9): 8.91 µM (inconclusive) | AC50 (Cytochrome P450 3A4): 5.01 µM (inconclusive)

COCCN(C(=O)C(C)C)c1nnc(-c2ccc(C(C)(C)C)cc2)s1
AC50 [5]: 2.42 µM (active)

CCOC(=O)c1nc(O)c2ccccc2c1O
AC50 [1]: > 380 µM (inactive) | EC50 (Protein RecA): 5.23 µM (active)

COc1cc(C(=O)OCC(=O)Nc2cc(C)on2)cc(OC)c1OC
AC50 (Cytochrome P450 2C9): 0.0447 µM (inconclusive) | AC50 (Cytochrome P450 3A4): 15.8 µM (inconclusive)

CCNc1ncc2nc(-c3ccccc3)c(=O)n(CCOC)c2n1
AC50 (Cytochrome P450 2C9): 20 µM (inconclusive) | AC50 (Cytochrome P450 3A4): 31.6 µM (inconclusive) | AC50 (Cytochrome P450 2C19): 31.6 µM (inconclusive)

Cc1ccc(S(=O)(=O)N2CCCCC2)cc1NC(=O)Cc1c[nH]c2ccccc12
AC50 (Paired box protein Pax-8): 19.5 µM (active)

CCN(C(=O)c1cccc(S(=O)(=O)N2CCCCC2)c1)C1CCS(=O)(=O)C1 (stereo unspecified)
EC50 [3]: > 260 µM (inactive)

COC(=O)CN1C(=O)S/C(=C/c2ccc(N3CCCCC3)o2)C1=O
AC50 (Cytochrome P450 2C9): 5.62 µM (inconclusive) | AC50 (Cytochrome P450 3A4): 15.8 µM (inconclusive) | AC50 (Cytochrome P450 2C19): 5.62 µM (inconclusive)

O=C(NCCN1Cc2ccccc2C1=O)c1cccs1
EC50 [3]: > 260 µM (inactive)

CCOCCCn1cnc2c3ccc(OC)cc3nc-2c1O
AC50 (Cytochrome P450 2C9): 39.8 µM (inconclusive)

COC(=O)[C@@]12C[C@@H](CC(=O)N3CCN(C(=O)c4ccco4)CC3)C(=O)N(Cc3ccccc3)C1=CCC(C)(C)C2
AC50 (Paired box protein Pax-8): 1.81 µM (active)

Nc1nc(S)nc2c1C1(CCCC1)Cc1ccccc1-2
AC50 (Cytochrome P450 2C9): 0.355 µM (inconclusive) | AC50 (Cytochrome P450 2C19): 11.2 µM (inconclusive)

COc1cc(C(c2c(C)n[nH]c2O)c2c(C)n[nH]c2O)cc(Br)c1OC
AC50 [1]: 0.756 µM (active) | EC50 (Protein RecA): 0.274 µM (active)

N#CCCn1c(=O)c(-c2cccs2)nc2cnc(OCc3ccccc3)nc21
AC50 (Cytochrome P450 2C9): 1.58 µM (inconclusive)

CCOc1ccccc1CN1CCN(Cc2cn(C)nc2-c2ccccc2)CC1CCO (stereo unspecified)
EC50 [3]: > 260 µM (inactive)

Cc1ccc2[nH]c(SCC(=O)Nc3cccc(S(=O)(=O)NC4=NCCCCC4)c3)nc2c1
EC50 [3]: > 260 µM (inactive)

O=C1CCN(Cc2ccccc2)N1
EC50 [3]: > 260 µM (inactive)

N#C/C(C(=O)NCc1ccccc1)=C1/N=C(NC(=O)c2ccco2)c2ccccc21
EC50 [3]: > 260 µM (inactive)

CC1(C)Cc2ccccc2C(/C=C(\O)c2ccccc2)=N1
AC50 [5]: 1.97 µM (active)

O=C(CCCN1C(=O)/C(=C\c2ccccc2)SC1=S)Nc1ccc(O)cc1C(=O)O
AC50 [1]: 15.4 µM (active) | EC50 (Protein RecA): 15.1 µM (active)

Clc1ccc(CCNc2nc3ccccc3s2)cc1
AC50 (Cytochrome P450 2C9): 12.6 µM (inconclusive)
